Results from ChEMBL document CHEMBL2034882, “Synthesis, biological evaluation and molecular docking studies of novel 2-(1,3,4-oxadiazol-2-ylthio)-1-phenylethanone derivatives” (Bioorg Med Chem, 2012).

Experiments:
MCF7 = experiment: Cytotoxicity against human MCF7 cells after 24 hrs using Annexin VeFITC/propidium iodide staining by MTT assay; format: functional, cell-based; details: MCF7, 24 h
A-431 [1] = experiment: Cytotoxicity against human A431 cells after 24 hrs […] by MTT assay; format: functional, cell-based; details: A-431, 24 h
[2] = Inhibition of bovine brain FAK after 20 mins by turbidimetry; set-up: species or system Bos taurus
A-431 [3] = experiment: Induction of apoptosis in human A431 cells assessed as late apoptotic cells at 5 nM after 24 hrs using Annexin VeFITC/propidium iodide staining by flow cytometry; format: functional
A-431 [4] = experiment: Induction of apoptosis in human A431 cells assessed as early apoptotic cells at 5 nM after 24 hrs using Annexin VeFITC/propidium iodide staining by flow cytometry; format: functional
A-431 [5] = experiment: Induction of apoptosis in human A431 cells assessed as necrotic cells at 5 nM after 24 hrs using Annexin VeFITC/propidium iodide staining by flow cytometry; format: functional
A-431 [6] = experiment: Induction of apoptosis in human A431 cells assessed as early apoptotic cells at 10 nM after 24 hrs using Annexin VeFITC/propidium iodide staining by flow cytometry; format: functional
A-431 [7] = experiment: Induction of apoptosis in human A431 cells assessed as late apoptotic cells at 10 nM after 24 hrs using Annexin VeFITC/propidium iodide staining by flow cytometry; format: functional
A-431 [8] = experiment: Induction of apoptosis in human A431 cells assessed as necrotic cells at 10 nM after 24 hrs using Annexin VeFITC/propidium iodide staining by flow cytometry; format: functional
A-431 [9] = experiment: Induction of apoptosis in human A431 cells assessed as early apoptotic cells at 20 nM after 24 hrs using Annexin VeFITC/propidium iodide staining by flow cytometry; format: functional
A-431 [10] = experiment: Induction of apoptosis in human A431 cells assessed as late apoptotic cells at 20 nM after 24 hrs using Annexin VeFITC/propidium iodide staining by flow cytometry; format: functional
A-431 [11] = experiment: Induction of apoptosis in human A431 cells assessed as necrotic cells at 20 nM after 24 hrs using Annexin VeFITC/propidium iodide staining by flow cytometry; format: functional
A-431 [12] = experiment: Induction of apoptosis in human A431 cells assessed as early apoptotic cells at 40 nM after 24 hrs using Annexin VeFITC/propidium iodide staining by flow cytometry; format: functional
A-431 [13] = experiment: Induction of apoptosis in human A431 cells assessed as late apoptotic cells at 40 nM after 24 hrs using Annexin VeFITC/propidium iodide staining by flow cytometry; format: functional
A-431 [14] = experiment: Induction of apoptosis in human A431 cells assessed as necrotic cells at 40 nM after 24 hrs using Annexin VeFITC/propidium iodide staining by flow cytometry; format: functional
A-431 [15] = experiment: Induction of apoptosis in human A431 cells assessed as viable cells at 5 nM after 24 hrs using Annexin VeFITC/propidium iodide staining by flow cytometry; format: functional; details: A-431, 24 h, read-out: Activity
A-431 [16] = experiment: Induction of apoptosis in human A431 cells assessed as viable cells at 10 nM after 24 hrs using Annexin VeFITC/propidium iodide staining by flow cytometry; format: functional; details: A-431, 24 h, read-out: Activity
A-431 [17] = experiment: Induction of apoptosis in human A431 cells assessed as viable cells at 20 nM after 24 hrs using Annexin VeFITC/propidium iodide staining by flow cytometry; format: functional; details: A-431, 24 h, read-out: Activity
A-431 [18] = experiment: Induction of apoptosis in human A431 cells assessed as viable cells at 40 nM after 24 hrs using Annexin VeFITC/propidium iodide staining by flow cytometry; format: functional; details: A-431, 24 h, read-out: Activity
A-431 [19] = experiment: Induction of apoptosis in human A431 cells after 24 hrs using Annexin VeFITC/propidium iodide staining by flow cytometry; format: functional, cell-based

SMILES | IC50 [2] [µM] | IC50 (MCF7) [nM] | IC50 (A-431 [1]) [nM] | further results
CC(C)(C)c1ccc(-c2nnc(SCC(=O)c3ccccc3)o2)cc1 | 18.6 | 50 | 170 | –
COc1ccccc1-c1nnc(SCC(=O)c2ccccc2)o1 | 0.58 | 2070 | 20 | –
Nc1cc(-c2nnc(SCC(=O)c3ccc(Br)cc3)o2)ccn1 | 1.15 | 200 | 60 | –
O=C(CSc1nnc(-c2ccnc(Cl)c2)o1)c1ccc(Br)cc1 | 0.97 | 270 | 50 | –
O=C(CSc1nnc(-c2ccccc2F)o1)c1ccc(Br)cc1 | 19.8 | 240 | 200 | –
COc1cc(OC)cc(-c2nnc(SCC(=O)c3ccccc3)o2)c1 | 0.65 | 170 | 40 | –
O=C(CSc1nnc(-c2cccc3ccccc23)o1)c1ccc(Br)cc1 | 17.9 | 260 | 160 | –
Nc1cc(-c2nnc(SCC(=O)c3ccccc3)o2)ccn1 | 0.02 | 140 | 10 | Activity (A-431 [3]): 9.47%; Activity (A-431 [4]): 16.77%; Activity (A-431 [5]): 8%; Activity (A-431 [6]): 17.47%; Activity (A-431 [7]): 12.23%; Activity (A-431 [8]): 9%; Activity (A-431 [9]): 28.92%; Activity (A-431 [10]): 15.26%; Activity (A-431 [11]): 6%; Activity (A-431 [12]): 43.51%; Activity (A-431 [13]): 16.65%; Activity (A-431 [14]): 6%; viability at 0.005 µM (A-431 [15]): 65.8%; viability at 0.01 µM (A-431 [16]): 61.3%; viability at 0.02 µM (A-431 [17]): 49.8%; viability at 0.04 µM (A-431 [18]): 33.8%; Activity (A-431 [19]): Dose-dependent effect
CCOc1ccccc1-c1nnc(SCC(=O)c2ccc(Br)cc2)o1 | 40.5 | 460 | 360 | –
Cc1ccc(-c2nnc(SCC(=O)c3ccc(Br)cc3)o2)c(O)c1 | 2.67 | 2070 | 50 | –
CC(C)(C)c1ccc(-c2nnc(SCC(=O)c3ccc(Br)cc3)o2)cc1 | 9.8 | 1950 | 100 | –
CN[C@@H]1C[C@H]2O[C@@](C)([C@@H]1OC)n1c3ccccc3c3c4c(c5c6ccccc6n2c5c31)C(=O)NC4 [STAUROSPORINE] | – | – | 70 | –
CN(C)c1ccc(-c2nnc(SCC(=O)c3ccccc3)o2)cc1 | 17.5 | 210 | 160 | –
COc1ccc(-c2nnc(SCC(=O)c3ccc(Br)cc3)o2)c(O)c1 | 35.4 | 260 | 330 | –
COc1ccccc1-c1nnc(SCC(=O)c2ccc(Br)cc2)o1 | 1.35 | 600 | 80 | –
O=C(CSc1nnc(-c2cccc3ccccc23)o1)c1ccccc1 | 5.8 | 230 | 130 | –
O=C(CSc1nnc(-c2ccncc2)o1)c1ccc(Br)cc1 | 76.3 | 4230 | 780 | –

More lines, main results first:

IC50 [2] [µM] | SMILES | IC50 (MCF7) [nM] | IC50 (A-431 [1]) [nM] | further results
20.5 | COc1ccc(-c2nnc(SCC(=O)c3ccccc3)o2)c(O)c1 | 280 | 180 | –
59.8 | CCOc1ccccc1-c1nnc(SCC(=O)c2ccccc2)o1 | 2670 | 650 | –
0.76 | Cc1ccc(-c2nnc(SCC(=O)c3ccccc3)o2)c(O)c1 | 150 | 60 | –
1.08 | COc1cc(OC)cc(-c2nnc(SCC(=O)c3ccc(Br)cc3)o2)c1 | 270 | 60 | –
302 | O=C(CSc1nnc(-c2ccnc(Cl)c2)o1)c1ccccc1 | 1290 | 3200 | –
21.5 | CN(C)c1ccc(-c2nnc(SCC(=O)c3ccc(Br)cc3)o2)cc1 | 550 | 200 | –
98.7 | O=C(CSc1nnc(-c2ccncc2)o1)c1ccccc1 | 370 | 1000 | –
1.22 | O=C(CSc1nnc(-c2ccccc2F)o1)c1ccccc1 | 260 | 50 | –
